Patent US9345678B2, “Prostanoid receptor agonist compounds and methods of use for same” (ALLERGAN, INC., priority 2013, dated 2016)
Like-named read-outs stand apart in the source and are kept apart here.

How the values were obtained:
[1] = system: rat endotoxin-induced uveitis (EIU) model; assay: Rat endotoxin-induced uveitis (EIU) model: cell infiltrate and protein leakage in the aqueous humor; format: in vivo; details: for Protein concentration in the aqueous humor: FIG. 11B; for Cell infiltrate in the aqueous humor: FIG. 9C
Source text: FIGS. 9A-D show the results of experiments where cicaprost was applied topically to inhibit inflammation in a rat endotoxin-induced uveitis (EIU) model. Here, the rats were challenged with LPS, and the resulting inflammatory reaction was quantified by measuring leukocyte cell infiltration in the aqueous humor and by measuring the amount of protein leakage into the aqueous humor. In the Figures, “LPS” corresponds to the control where no other topical treatment was applied. “Vehicle” corresponds to an eye drop ophthalmic vehicle solution containing no drug, and which otherwise comprises 0.1% polysorbate 80 in an aqueous medium. “Pred-Forte” corresponds to an ophthalmic solution of 1% prednisolone acetate. “Acular” corresponds to an ophthalmic solution of 0.4% ketorolac. The concentrations of cicaprost used in the ophthalmic vehicle solution were 0.001%, 0.01%, and 0.1%.
FIGS. 11A-B show the results of experiments measuring cell infiltrate and protein in the aqueous humor in a rat EIU model challenged with LPS, where the rats were challenged in a similar manner as described previously. Cicaprost, as well as the cicaprost prodrugs described above in Formulas II-V, were separately topically dosed as a 0.1% ophthalmic solution.

[2] = system: cytokine secretion in human monocyte derived dendritic cells; assay: Cytokine secretion in LPS-stimulated human monocyte derived dendritic cells; format: cell-based
Method: FIGS. 8A-F illustrate the effect of different IP receptor agonists and antagonists on cytokine secretion in human monocyte derived dendritic cells stimulated with LPS. In these experiments, the cells were exposed to cicaprost, cicaprost in conjunction with DMSO, and cicaprost with an IP receptor antagonist (Formula VI). Cytokines measured for were TNF-α, IL-6, MCP-1, MIP-1β, IL-8, and IL-12p70, corresponding to FIGS. 8A through 8F, respectively. The concentration ranges of cicaprost were 0 nM, 0.1 nM, 1 nM, 10 nM, 100 nM, and 1000 nM. The concentration of Formula VI IP receptor antagonist used was 10 uM throughout. The concentration of the various cytokines tested for were measured in ng/ml. The concentration of the DMSO used in conjunction with cicaprost was at 0.1%.

[3] = system: RANTES secretion in human macrophages; assay: Effect on RANTES secretion in stimulated human macrophages in vitro; format: cell-based; details: Macrophage
Method: (§1) FIGS. 1A-B illustrate the effect of cicaprost on IL-8 secretion on in vitro human macrophages. The human macrophages were simulated either with lipopolysaccharide (LPS), illustrated in FIG. 1A, or with TNF-α, illustrated in FIG. 1B. The labels on the x-axis correspond respectively to tests measuring IL-8 concentration with no stimulus, a control of only stimulant vehicle (i.e., LPS or TNF-α), and stimulant vehicle in conjunction with cicaprost concentrations of 0.1 nM, 1 nM, 10 nM, 100 nM, and 1000 nM. The y-axis tracks the percentage change of concentration of IL-8 versus the control stimulant vehicle, which is set at 100%.
FIGS. 5A-B illustrate the effect of cicaprost on RANTES secretion on in vitro human macrophages. The human macrophages were simulated either with LPS, illustrated in FIG. 5A, or with TNF-α, illustrated in FIG. 5B. The labeling of the graphs is otherwise the same as described above.

[4] = system: TNF-α secretion in human macrophages; assay: Effect on TNF-α secretion in LPS-stimulated human macrophages in vitro; format: cell-based; details: Macrophage, LPS stimulation, FIG. 6
Method: as §1
FIG. 6 illustrates the effect of cicaprost on TNF-α secretion on in vitro human macrophages. The human macrophages were simulated with LPS. The labeling of the graphs is otherwise the same as described above.

[5] = system: MIP-1α secretion in human macrophages; assay: Effect on MIP-1α secretion in stimulated human macrophages in vitro; format: cell-based; details: Macrophage
Method: as §1
FIGS. 3A-B illustrate the effect of cicaprost on MIP-1α secretion on in vitro human macrophages. The human macrophages were simulated either with LPS, illustrated in FIG. 3A, or with TNF-α, illustrated in FIG. 3B. The labeling of the graphs is otherwise the same as described above.

[6] = system: corneal wound (anterior keratectomy), donated human eyes; assay: Corneal wound closure in an anterior segment model of donated human eyes; details: 0.1% cicaprost, two drops at 0 and 9 hours, wound area at 18 hours, vs vehicle-dosed eye, 3 pairs of donor eyes
Method: The effect of cicaprost on corneal wound healing was evaluated in an anterior segment model using 3 pairs of donated human eyes. Wounding (anterior keratectomy, AK) was induced by scoring the cornea in 8 mm diameter, and the epithelium was removed using a gill knife. The anterior segment of the eye was dissected and cultured in complete medium on a rotating platform for several days to maintain tissue differentiation. Two drops (approximately 50 μl per drop) of 0.1% cicaprost were dosed at 0 and 9 hours on one eye (“Cp”), while the other eye (“CN”) was treated with vehicle (0.1% polysorbate 80 in saline). The initial wound and the progression of wound closure was visualized with 0.015% fluorescein, and the wound area recorded at 0 and 18 hours, as shown in FIG. 12.

[7] = system: VEGF secretion in human macrophages; assay: Effect on VEGF secretion in TNF-α-stimulated human macrophages in vitro; format: cell-based; details: Macrophage, TNF-α stimulation, FIG. 7
Method: as §1
FIG. 7 illustrates the effect of cicaprost on VEGF secretion on in vitro human macrophages. The human macrophages were simulated with TNF-α. The labeling of the graphs is otherwise the same as described above.

[8] = system: rat endotoxin-induced uveitis (EIU) model; assay: Rat EIU model: cytokine concentration in the aqueous humor; format: in vivo; details: LPS challenge, topical cicaprost 0.001%, 0.01%, 0.1%, vs vehicle
Method: FIGS. 10A-C depict the results of experiments measuring cytokine expression in a rat EIU model, where the rats were challenged with LPS. Cytokine concentration (here, MCP-1, RANTES, and IL-6) was measured subsequent to the LPS challenge, after topical application of cicaprost at concentrations from 0.001%, 0.01%, and 0.1%, together with a control eye drop vehicle (abbreviated “Vehicle” in the figures) where no cicaprost was present.

[9] = system: MCP-1 secretion in human macrophages; assay: Effect on MCP-1 secretion in stimulated human macrophages in vitro; format: cell-based; details: Macrophage
Method: as §1
FIGS. 2A-B illustrate the effect of cicaprost on MCP-1 secretion on in vitro human macrophages. The human macrophages were simulated either with LPS, illustrated in FIG. 2A, or with TNF-α, illustrated in FIG. 2B. The labeling of the graphs is otherwise the same as described above.

[10] = system: MIP-1β secretion in human macrophages; assay: Effect on MIP-1β secretion in stimulated human macrophages in vitro; format: cell-based; details: Macrophage
Method: as §1
FIGS. 4A-B illustrate the effect of cicaprost on MIP-1β secretion on in vitro human macrophages. The human macrophages were simulated either with LPS, illustrated in FIG. 4A, or with TNF-α, illustrated in FIG. 4B. The labeling of the graphs is otherwise the same as described above.

[11] = system: IL-8 secretion in human macrophages; assay: Effect on IL-8 secretion in stimulated human macrophages in vitro; format: cell-based; details: Macrophage, LPS stimulation, FIG. 1A
Method: as §1, with “The” for “FIGS. 1A-B illustrate the effect of cicaprost on IL-8 secretion on in vitro human macrophages. The”

[12] = LPS challenge, topical 0.1% ophthalmic solution, vs control vehicle

SMILES: CCC#CC[C@H](C)[C@H](O)C#C[C@@H]1[C@H]2C/C(=C/COCC(=O)O)C[C@H]2C[C@H]1OC(=O)CC [Formula III]
- Protein concentration in the aqueous humor [1, 12]: approximately comparable to cicaprost in effect

SMILES: CCC#CC[C@H](C)[C@H](O)C#C[C@@H]1[C@H]2C/C(=C/COCC(=O)O)C[C@H]2C[C@H]1OC(C)=O [Formula II]
- Protein concentration in the aqueous humor [1, 12]: some reduction in protein concentration

SMILES: CCC#CC[C@H](C)[C@@H](C#C[C@@H]1[C@H]2C/C(=C/COCC(=O)O)C[C@H]2C[C@H]1O)OC(C)=O [Formula IV]
- Protein concentration in the aqueous humor [1, 12]: some reduction in protein concentration

SMILES: C=C/C(=C\C=C\Cc1ccc(NC2=NCCN2)cc1)OCC [Formula VI, reference compound]
- Cytokine expression on addition of the IP receptor antagonist to cicaprost ([2]; Formula VI 10 uM with cicaprost 0-1000 nM): caused cytokine expression to remain elevated in comparison

SMILES: CCC#CC[C@H](C)[C@@H](C#C[C@@H]1[C@H]2C/C(=C/COCC(=O)O)C[C@H]2C[C@H]1O)OC(=O)CC [Formula V]
- Protein concentration in the aqueous humor [1, 12]: some reduction in protein concentration

SMILES: CCC#CC[C@H](C)[C@H](O)C#C[C@@H]1[C@H]2C/C(=C/COCC(=O)O)C[C@H]2C[C@H]1O [cicaprost]
- IC50 ([3]; LPS stimulation, FIG. 5A, read-out: IC50 on RANTES secretion stimulated by LPS): 0.8 nM
- IC50 ([3]; TNF-α stimulation, FIG. 5B, read-out: IC50 on RANTES secretion): 1.6 nM
- IC50 [4]: 0.14 nM
- IC50 ([5]; LPS stimulation, FIG. 3A, read-out: IC50 on MIP-1α secretion stimulated by LPS): 0.3 nM
- IC50 ([5]; TNF-α stimulation, FIG. 3B, read-out: IC50 on MIP-1α secretion): 0.6 nM
- Percentage of wound closure [6]: showed an improvement in the percentage of wound closure
- EC50 [7]: 2.3 nM
- IL-6 concentration [8]: reduced the concentration of the monitored cytokines
- MCP-1 concentration [8]: reduced the concentration of the monitored cytokines
- RANTES concentration [8]: reduced the concentration of the monitored cytokines
- Cell infiltration in the aqueous humor ([1]; LPS challenge, topical 0.1% ophthalmic solution, vs control vehicle, FIG. 11A): caused a reduction in cell infiltration
- Protein concentration in the aqueous humor [1, 12]: reduced protein concentration in the aqueous humor
- Cell infiltrate in the aqueous humor ([1]; topical 0.1% cicaprost solution): reduced cell infiltrate to near-zero levels
- Cell infiltrate in the aqueous humor ([1]; topical cicaprost 0.001%, 0.01%, 0.1%): increasing effect on lowering cell infiltrate
- Protein in the aqueous humor ([1]; topical cicaprost 0.001-0.1%, especially 0.1%, FIG. 9D): also reduced
- IC50 ([9]; LPS stimulation, FIG. 2A, read-out: IC50 on MCP-1 secretion stimulated by LPS): 0.7 nM
- IC50 ([9]; TNF-α stimulation, FIG. 2B, read-out: IC50 on MCP-1 secretion): 0.5 nM
- Cytokine expression (TNF-α, IL-6, MCP-1, MIP-1β, IL-8, IL-12p70) ([2]; cicaprost 0.1-1000 nM with 0.1% DMSO): increasing inhibition of cytokine expression
- Cytokine expression (TNF-α, IL-6, MCP-1, MIP-1β, IL-8, IL-12p70) ([2]; cicaprost 0.1-1000 nM, vs 0 nM control): increasing inhibition of cytokine expression
- IC50 ([10]; LPS stimulation, FIG. 4A, read-out: IC50 on MIP-1β secretion stimulated by LPS): 0.5 nM
- IC50 ([10]; TNF-α stimulation, FIG. 4B, read-out: IC50 on MIP-1β secretion): 0.7 nM
- IC50 [11]: 0.8 nM
